Laboratory results as given in the CheMixHub viscosity set.

Experiment: xn = mol fraction of the nth substance listed

COCCOCCOCCOC + ClC(Cl)Cl
298.15 K, 101 kPa
Conditions	viscosity [mPa·s]
x1 = 0.0083	0.569
x1 = 0.0278	0.622
x1 = 0.0552	0.702
x1 = 0.0851	0.795
x1 = 0.1347	0.962
x1 = 0.195	1.16
x1 = 0.241	1.295
x1 = 0.2903	1.425
x1 = 0.3545	1.559
x1 = 0.4174	1.678
x1 = 0.4686	1.717
x1 = 0.5236	1.766
x1 = 0.5853	1.809
x1 = 0.631	1.836
x1 = 0.708	1.868
x1 = 0.7445	1.893
x1 = 0.8071	1.901
x1 = 0.8627	1.918
x1 = 0.9174	1.934
x2 = 0.0147	1.949

COCCOCCOCCO + ClC=C(Cl)Cl
298.15 K, 101.33 kPa
Conditions	viscosity [mPa·s]
x1 = 0.0056	0.538
x1 = 0.0133	0.554
x1 = 0.0235	0.574
x1 = 0.0377	0.603
x1 = 0.0554	0.645
x1 = 0.0751	0.694
x1 = 0.0865	0.725
x1 = 0.1057	0.778
x1 = 0.1359	0.869
x1 = 0.171	0.983
x1 = 0.2125	1.134
x1 = 0.2627	1.342
x1 = 0.286	1.451
x1 = 0.3201	1.615
x1 = 0.3511	1.784
x1 = 0.3864	1.974
x1 = 0.4202	2.172
x1 = 0.4548	2.382
x1 = 0.4947	2.633
x1 = 0.5322	2.875
x1 = 0.5817	3.21
x1 = 0.6349	3.596
x1 = 0.6824	3.953
x1 = 0.7308	4.32
x1 = 0.7791	4.716
x1 = 0.8178	5.027
x1 = 0.8689	5.459
x1 = 0.9106	5.813
x1 = 0.9455	6.128
x1 = 0.9667	6.324
x2 = 0.0177	6.438

COCCOCCOCCOC + ClCCl
298.15 K, 101 kPa
Conditions	viscosity [mPa·s]
x1 = 0.0122	0.436
x1 = 0.0214	0.451
x1 = 0.043	0.496
x1 = 0.0736	0.575
x1 = 0.1008	0.621
x1 = 0.159	0.752
x1 = 0.2062	0.868
x1 = 0.2482	0.96
x1 = 0.3121	1.078
x1 = 0.3987	1.247
x1 = 0.4705	1.371
x1 = 0.5389	1.476
x1 = 0.5879	1.549
x1 = 0.6389	1.645
x1 = 0.6782	1.669
x1 = 0.7651	1.787
x1 = 0.803	1.823
x1 = 0.8785	1.897
x1 = 0.9474	1.92

CCCC(=O)OC + Clc1ccccc1
viscosity [mPa·s], 101.3 kPa
Conditions	308.15 K	318.15 K
x1 = 0.0851	0.648	0.601
x1 = 0.1025	0.647	0.6
x1 = 0.2257	0.63	0.588
x1 = 0.3019	0.621	0.58
x1 = 0.4004	0.607	0.567
x1 = 0.5036	0.593	0.552
x1 = 0.5911	0.58	0.54
x1 = 0.6834	0.564	0.527
x1 = 0.8223	0.541	0.504
x1 = 0.8997	0.525	0.489
x1 = 0.9522	0.515	0.479

C1COCCOCCOCCOCCO1 + O
101 kPa
Conditions	viscosity [mPa·s]
293.15 K, x1 = 0.0006204	1.026
293.15 K, x1 = 0.001402	1.056
293.15 K, x1 = 0.00196	1.077
293.15 K, x1 = 0.002451	1.096
293.15 K, x1 = 0.002972	1.116
293.15 K, x1 = 0.003463	1.135
298.15 K, x1 = 0.0008458	0.9177
298.15 K, x1 = 0.001528	0.94
298.15 K, x1 = 0.002266	0.9641
298.15 K, x1 = 0.002834	0.9822
298.15 K, x1 = 0.003303	0.9976
298.15 K, x1 = 0.003773	1.013
303.15 K, x1 = 0.0006643	0.8159
303.15 K, x1 = 0.001358	0.835
303.15 K, x1 = 0.002066	0.8548
303.15 K, x1 = 0.003143	0.8854
303.15 K, x1 = 0.00351	0.8952
303.15 K, x1 = 0.003848	0.9049
308.15 K, x1 = 0.0008516	0.7393
308.15 K, x1 = 0.001375	0.7519
308.15 K, x1 = 0.001712	0.7607
308.15 K, x1 = 0.00238	0.7764
308.15 K, x1 = 0.003105	0.7938
308.15 K, x1 = 0.003675	0.8069

O=S(=O)([O-])NC1CCCCC1.[K+] + O
viscosity [mPa·s], 101 kPa
Conditions	x1 = 0.0007156	x1 = 0.001095	x1 = 0.001452	x1 = 0.001751	x1 = 0.002086	x1 = 0.002528	x1 = 0.002966	x1 = 0.003212	x1 = 0.003506	x1 = 0.003747
293.15 K	1.021	1.031	1.041	1.049	1.058	1.072	1.085	1.091	1.101	1.107
298.15 K	0.9071	0.9163	0.9245	0.9318	0.9397	0.9515	0.9626	0.9683	0.9765	0.982
303.15 K	0.8126	0.8204	0.8278	0.8343	0.8412	0.8514	0.8611	0.866	0.873	0.8778
313.15 K	0.6648	0.6714	0.6773	0.6823	0.6878	0.6957	0.7032	0.7073	0.7127	0.7164
323.15 K	0.5565	0.5615	0.5663	0.5703	0.5748	0.5809	0.5873	0.5902	0.5948	0.5977
